Source: PMC8234803, “In Vitro Metabolism of Six C-Glycosidic Flavonoids from Passiflora incarnata L” (International Journal of Molecular Sciences, 2021)
“Also recorded” adds a separate entry of the source.

How the values were obtained:
[1] = Stability testing in test buffer (HBSS pH 6.0) under assay conditions, HPLC-DAD; type: physicochemical; settings: 10 µM in HBSS pH 6.0, 37 °C, 5% CO2; after 3 h of incubation
Method: To guarantee the stability of all test substances during the metabolism assay on Caco-2 cells, they were incubated in the test buffer under assay conditions. Test samples were collected each hour for 5 h and were measured via HPLC-DAD.
To ensure stability during the Caco-2 metabolism experiments, all test substances were dissolved in DMSO to a concentration of 20 mM and diluted to 10 µM in an appropriate volume of HBSS (pH 6.0), resulting in a DMSO concentration of less than 1%. The test solution (1 mL) was aliquoted into a 12-well Transwell® plate and incubated for 5 h in an atmosphere of 5% CO2 and 90% relative humidity at 37 °C. Test samples (100 µL) were collected after t = 0, 1, 2, 3, 4, and 5 h and measured via HPLC-DAD. The peak area of the test substance at time t = 0 h was defined as 100%, and all other peak areas were related to calculate the proportional stability. The stability was calculated as % = area/area0 × 100. Stability testing was performed on three independent days with freshly prepared solutions (n = 3).
The system consisted of the following: Elite LaChrom with an L2200 autosampler, L2130 pump, L2350 column oven, L2444 DAD, and EZChrom Elite 3.1.7 software (Hitachi, Tokyo, Japan); column: Kinetex® Biphenyl, 100 Å, 250-4.6 mm (5 µm, same material precolumn; Phenomenex, Torrance, CA, USA); injection volume 30 µL; oven temp.: 25 °C; autosampler temp.: 10 °C; detection wavelength: 340 nm; flow: 1.2 mL/min; A = H2O + 0.1% TFA, B = acetonitrile + 0.1% TFA; gradient: 0–2 min 10% B, 2–10 min 10% B → 100% B, 10–11 min 100% B → 10% B, 11–15 min 10% B.

Caco-2 cells = assay: MTT assay under metabolic conditions (cell viability); type: cell-based, human; settings: 10, 25, 50, 75, 100 µM in HBSS (pH 6.0), 5 h incubation
Method: All six substances were tested in five different dilutions in HBSS (pH 6.0). The determined viability values of O, IO, S, IS, V, and IV are listed in the Supplementary Materials (Figure S2).
Caco-2 cells in the logarithmic growth phase were seeded in 96-well plates at a density of 3 × 10^4 cells/well and incubated at 37 °C in an atmosphere of 5% CO2 and constant moisture in an incubator. After 24 h, the cell culture medium was removed, and 100 µL of HBSS solution (negative control), 0.5% DMSO in HBSS solution (solvent control), or flavonoid samples in HBSS solution (6 flavonoids at concentrations of 10, 25, 50, 75, and 100 µM) was applied in quintuplicate and incubated for 5 h. Afterwards, the HBSS solutions were removed and replaced with an MTT solution in DMEM (0.4 mg/mL) and incubated for another 3 h at 37 °C. Then, the MTT solution was discarded, and the cells were fixed with a 10% SDS solution in PBS and stored at room temperature in the dark. After 24 h, the absorbance was measured on a Tecan microplate reader (Tecan Trading AG, Switzerland) at 560 nm. The viability rate was calculated as % = A/A0 × 100, with A as the average absorbance value of the treatment and solvent control groups and A0 as the average absorbance value of the negative control group. The assay was performed three times in pentaplicate.
The human colon adenocarcinoma cell line Caco-2 was obtained from the ATCC (American Type Culture Collection, Manassas, VA, USA). The cell line was determined to be free of mycoplasma contamination by PCR and culture from GATC Biotech AG (Konstanz, Germany). The cells were cultured in DMEM supplemented with 10% (v/v) FBS, 1% (v/v) NEAA, and 1% (v/v) antibiotics (penicillin/streptomycin) in an atmosphere of 5% CO2 and 90% relative humidity at 37 °C. The culture medium was replaced every 3 days, and the cells were split 1:5 using trypsin-EDTA once 90% confluence was obtained.

Caco-2 cell monolayer = assay: Caco-2 monolayer metabolism experiment, metabolites identified via UHPLC-DAD-MS(/MS); type: in vitro ADME, human; settings: for Possible metabolite (phase II metabolite identified by MS/MS fragmentation and comparison with reference compound after enzymatic hydrolysis): glucuronidase/sulfatase cleavage, UHPLC-DAD-MS/MS; for Extent of phase I and II metabolism (in words): independent of incubation time and concentration
Method: To obtain information on the in vitro metabolism of the six tested C-glycosidic flavonoids in the intestine, experiments were carried out using the Caco-2 monolayer model (Figure 2). Metabolite profiles were characterized at two different concentrations (10 and 100 µM; n = 3) and after two different incubation times (3 or 5 h; n = 3) in order to determine the influence of concentration and time on the metabolism reactions that occurred. Furthermore, to analyze the distribution of the observed metabolites, samples were collected from the cell lysate and the apical and basolateral compartments. All samples of the metabolism experiments using the Caco-2 cell monolayer were analyzed using UHPLC-DAD-MS and UHPLC-DAD-MS/MS. Metabolites were identified by libraries that were prepared for each compound (Tables S1–S6). The O and IO libraries contained 67 metabolites (Tables S1 and S2), the S and IS libraries contained 106 metabolites (Tables S3 and S4), and the V and IV libraries contained 71 possible metabolites (Tables S5 and S6).
To form a confluent and differentiated monolayer, cells at passages 16–45 were seeded into the inserts of 12-well Transwell® plates at a density of 3.0 × 10^5 cells/cm^2. Afterwards, the culture medium was replaced every day, and the metabolism experiment was performed 21 days after seeding. The apical and basolateral compartments contained 0.5 and 1.5 mL of cell culture medium, respectively.
On day 21, the cell culture medium was removed from the apical and basolateral compartments, and the Caco-2 cell monolayer was washed two times with prewarmed HBSS. The Transwell® plates containing HBSS were incubated at 37 °C for 15 min to measure the transepithelial electrical resistance (TEER) value. The integrity of the cell monolayers was evaluated by TEER values between the apical and basolateral sides with the Evohm2 system (World Precision Instruments, Sarasota, FL, USA). The cell inserts were only used for the metabolism experiments if the resistance exceeded 350 Ω/cm^2. The six test substances were dissolved in DMSO to a stock solution of 20 mM. The HBSS was adjusted to pH 6.0 and 7.4 with 1 M HCl. Afterwards, the stock solutions were diluted to 10 or 100 µM in an appropriate volume of HBSS (pH 6.0) to obtain a DMSO concentration of <1%. The test solutions were added to the apical side (0.5 mL), while the basolateral side was filled with 1.5 mL of HBSS (pH 7.4). The Transwell® plates were incubated at 37 °C for 3 or 5 h, respectively. After this period, solutions from the apical and basolateral compartments were collected in separate tubes, washed twice with 500 µL of HBSS, and then collected again. The samples were lyophilized and stored at −20 °C until they were measured using UHPLC-DAD-MS. After the experiment, Transwell® inserts were apically (0.5 mL) and basolaterally (1.5 mL) filled with HBSS and warmed to 37 °C for 20 min. Then, the TEER values were measured to guarantee the integrity of the monolayer during the experiment. The experiment was performed in triplicate for each substance, concentration, and incubation time.
After the metabolism experiment, cell monolayers were washed twice with PBS and incubated with 200 µL of trypsin-EDTA for 10 min at 37 °C in an atmosphere of 5% CO2 and constant humidity in the incubator. The cells were removed from the well by pipetting up and down, and were collected in a tube. The well was washed twice with PBS (1 mL), and the wash solution was also collected in the corresponding tube. The mixture was centrifuged (1000× g rpm, 5 min), and the supernatant was discarded.

[2] = initial concentration 100 µM, 3 h, apical compartment

| SMILES | Stability (content relative to t = 0 h) [1] | Effect on the viability of Caco-2 cells (in words) (Caco-2 cells) | Extent of metabolism (in words) (Caco-2 cell monolayer; 10 µM, 3 and 5 h) | Metabolites of the aglycones (cleavage of the C–C glycosidic bond) (Caco-2 cell monolayer; 100 µM approach) | Extent of metabolism (in words) (Caco-2 cell monolayer; 100 µM, 3 and 5 h) | Possible metabolite (phase II metabolite identified by MS/MS fragmentation and comparison with reference compound after enzymatic hydrolysis) (Caco-2 cell monolayer; metabolite at RT 2.514 5.107 min, m/z 527.0501) | Possible metabolite (phase II metabolite identified by MS/MS fragmentation and comparison with reference compound after enzymatic hydrolysis) (Caco-2 cell monolayer; metabolite at RT 5.134 min, m/z 477.0674) | Possible metabolite (phase II metabolite identified by MS/MS fragmentation and comparison with reference compound after enzymatic hydrolysis) (Caco-2 cell monolayer; metabolite at RT 5.476 min, m/z 461.0724) | Extent of phase I and II metabolism (in words) (Caco-2 cell monolayer) | Possible metabolite detected (Caco-2 cell monolayer; initial concentration 10 µM, 3 h, apical compartment) | Possible metabolite detected (Caco-2 cell monolayer; initial concentration 10 µM, 3 h, basolateral compartment) | Possible metabolite detected (Caco-2 cell monolayer; initial concentration 10 µM, 5 h, apical compartment) | Possible metabolite detected (Caco-2 cell monolayer; [2]) | Possible metabolite detected (Caco-2 cell monolayer; initial concentration 100 µM, 3 h, basolateral compartment) | Possible metabolite detected (Caco-2 cell monolayer; initial concentration 100 µM, 3 h, cell lysate) | Possible metabolite detected (Caco-2 cell monolayer; initial concentration 100 µM, 5 h, apical compartment) | Possible metabolite detected (Caco-2 cell monolayer; initial concentration 100 µM, 5 h, basolateral compartment) | Possible metabolite detected (Caco-2 cell monolayer; initial concentration 100 µM, 5 h, cell lysate) | Phase II conjugates containing glucuronic acid or sulfates (Caco-2 cell monolayer; 10 µM, 3 and 5 h) | Phase II metabolites with glucuronic acid or sulfates (Caco-2 cell monolayer; 100 µM, 3 and 5 h) |
| --- | --- | --- | --- | --- | --- | --- | --- | --- | --- | --- | --- | --- | --- | --- | --- | --- | --- | --- | --- | --- |
| O=c1cc(-c2ccc(O)c(O)c2)oc2cc(O)c([C@@H]3O[C@H](CO)[C@@H](O)[C@H](O)[C@H]3O)c(O)c12 [IO, isoorientin] | approximately 100% | no significant effects at any concentration | broader ranges of phase I and II metabolites | metabolites of the corresponding aglycones apigenin and luteolin were also detected | extensive metabolism | IO-sulfate | Quercetin-glucuronide | Luteolin-glucuronide | highly metabolized in phase I and II reactions | Isoorientin-sulfate; also recorded: Hydroxy-luteolin-glucuronide; also recorded: Hydroxy-methoxy-isoorientin | Isoorientin-sulfate; also recorded: Hydroxy-methoxy-isoorientin | Isoorientin-sulfate; also recorded: Hydroxy-methoxy-isoorientin | Methoxy-isoorientin-sulfate; also recorded: Hydroxy-luteolin-glucuronide; also recorded: Methoxy-luteolin; also recorded: Hydroxy-methoxy-isoorientin | Isoorientin-sulfate; also recorded: Hydroxy-methoxy-isoorientin | Isoorientin-sulfate; also recorded: Methoxy-isoorientin | Hydroxy-isoorientin; also recorded: Methoxy-isoorientin-sulfate; also recorded: Hydroxy-luteolin-glucuronide | Isoorientin-sulfate | Isoorientin-sulfate; also recorded: Methoxy-isoorientin | – | – |
| O=c1cc(-c2ccc(O)cc2)oc2c([C@@H]3O[C@H](CO)[C@@H](O)[C@H](O)[C@H]3O)c(O)c([C@@H]3OC[C@H](O)[C@H](O)[C@H]3O)c(O)c12 [IS, isoschaftoside] | approximately 100% | no significant effects at any concentration | very limited metabolism | – | a few hydroxylated and methoxylated derivatives | – | – | – | poorly metabolized in phase I and II reactions | – | – | – | Methoxy-isoschaftoside | – | – | – | – | – | No phase II conjugates containing glucuronic acid or sulfates were detectable | lacked the presence of phase II metabolites with glucuronic acid or sulfates |
